# In patent US7138361B2, “Herbicidal heterocycles” (E. I. du Pont de Nemours and Company, priority 2000, dated 2006):
# Experiments:
# Format in all cases: in vivo
# rice (Oryza saliva) [1] = test: Test C flooded paddy test; conditions: for Rice plant response rating: scale 0 to 100, 0 no effect, 100 complete control
# In short: (§1)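 Rice and three paddy weeds were grown to the 2-leaf stage under flooded conditions, then treated and kept in a greenhouse for 12–14 days. Response was rated visually against untreated controls on a 0–100 scale, where 100 is complete control.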
# [2] = test system: duck salad (Heteranthera limosa); test: Test C flooded paddy test; conditions: for Ducksalad plant response rating: scale 0 to 100, 0 no effect, 100 complete control
# In short: as §1
# [3] = test system: barnyardgrass (Echinochloa crus-galli); test: Test C flooded paddy test; conditions: for Barnyardgrass plant response rating: scale 0 to 100, 0 no effect, 100 complete control
# In short: as §1
# rice (Oryza saliva) [4] = test: Test B flooded paddy test; conditions: Rate 1000 g/ha, scale of 0 to 100 where 0 is no effect and 100 is complete control, visually evaluated after 13 to 15 days
# In short: (§2)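 Greenhouse-held for 13 to 15 days after treatment at the 2-leaf stage, paddy-grown plants were scored visually against controls on a 0-to-100 control scale; a dash marks no test result.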
# [5] = test system: smallflower flatsedge (Cyperus difformis); test: Test B flooded paddy test; conditions: Rate 1000 g/ha, scale of 0 to 100 where 0 is no effect and 100 is complete control, visually evaluated after 13 to 15 days
# In short: as §2
# [6] = test system: duck salad (Heteranthera limosa); test: Test B flooded paddy test; conditions: Rate 1000 g/ha, scale of 0 to 100 where 0 is no effect and 100 is complete control, visually evaluated after 13 to 15 days
# In short: as §2
# [7] = test system: barnyardgrass (Echinochloa crus-galli); test: Test B flooded paddy test; conditions: Rate 1000 g/ha, scale of 0 to 100 where 0 is no effect and 100 is complete control, visually evaluated after 13 to 15 days
# In short: as §2
# Sunflower = test: Test C preemergence; conditions: scale 0 to 100
# [8] = test system: crabgrass (Digitaria sanguinalis); test: Test C postemergence
# In short: (§3)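 Plants held in greenhouse for 12–14 days post-application are scored by eye against controls on a 0–100 control scale. Application timing: preemergence on sown seed, or postemergence on 2–18 cm plants.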
# soybean (Glycine max) = test: Test C postemergence
# In short: as §3
# [9] = test system: morningglory (Ipomoea hederacea); test: Test C postemergence; conditions: scale 0 to 100
# In short: as §3
# [10] = test system: velvetleaf (Abutilon theophrasti); test: Test C postemergence; conditions: scale 0 to 100
# In short: as §3
# [11] = test system: lambsquarters (Chenopodium album); test: Test C postemergence
# In short: as §3
# [12] = test system: johnsongrass (Sorghum halepense); test: Test C postemergence
# In short: as §3
# [13] = test system: cocklebur (Xanthium strumarium); test: Test C postemergence; conditions: scale 0 to 100
# In short: as §3
# [14] = test system: goosegrass (Eleusine indica); test: Test C postemergence
# In short: as §3
# kochia (Kochia scoparia) = test: Test C postemergence
# In short: as §3
# [15] = test system: common ragweed (Ambrosia elatior); test: Test C postemergence; conditions: scale 0 to 100
# In short: as §3
# [16] = test system: giant foxtail (Setaria faberii); test: Test C postemergence
# In short: as §3
# [17] = test system: yellow nutsedge (Cyperus esculentus); test: Test C postemergence
# In short: as §3
# corn (Zea mays) = test: Test C postemergence; conditions: scale 0 to 100
# In short: as §3
# [18] = test system: bermudagrass (Cynodon dactylon); test: Test C postemergence
# In short: as §3
# [19] = test system: pigweed (Amaranthus retroflexus); test: Test C postemergence
# In short: as §3
# [20] = Flooded Paddy, Rate 500 g/ha, scale 0 to 100
# [21] = Flooded Paddy, Rate 1000 g/ha, scale 0 to 100
# [22] = flooded paddy test, Rate 62 g/ha, scale 0 to 100 (0 no effect, 100 complete control)
# [23] = flooded paddy test, Rate 125 g/ha, scale 0 to 100 (0 no effect, 100 complete control)
# [24] = flooded paddy test, Rate 16 g/ha, visually evaluated after 12 to 14 days, 0 = no effect, 100 = complete control
# [25] = Rate 250 g/ha, scale 0 to 100 (0 no effect, 100 complete control)
compound,measurement,setting,value
O=C1C(n2ccc(C3CC3)n2)CCN1c1cccc(C(F)(F)F)c1 (stereo not shown) [Compound 8],"Plant response rating, Rice",rice (Oryza saliva) [1]; [20],60
same,"Plant response rating, Rice",rice (Oryza saliva) [1]; [21],80
same,Rice plant response rating,"rice (Oryza saliva) [1]; Flooded Paddy, Rate 250 g/ha",60
same,"Plant response rating, Rice",rice (Oryza saliva) [1]; [22],0
same,"Plant response rating, Rice",rice (Oryza saliva) [1]; [23],0
same,"Plant response rating, Ducksalad",[2]; [20],70
same,"Plant response rating, Ducksalad",[2]; [21],100
same,Ducksalad plant response rating,"[2]; Flooded Paddy, Rate 250 g/ha",40
same,"Plant response rating, Ducksalad",[2]; [22],0
same,"Plant response rating, Ducksalad",[2]; [23],20
same,"Plant response rating, Barnyardgrass",[3]; [20],70
same,"Plant response rating, Barnyardgrass",[3]; [21],100
same,Barnyardgrass plant response rating,"[3]; Flooded Paddy, Rate 250 g/ha",40
same,"Plant response rating, Barnyardgrass",[3]; [22],0
same,"Plant response rating, Barnyardgrass",[3]; [23],0
same,"Plant response rating, Rice",rice (Oryza saliva) [4],90
same,"Plant response rating, Flatsedge",[5],100
same,"Plant response rating, Ducksalad",[6],80
same,"Plant response rating, Barnyardgrass",[7],100
CC1(C)CCc2cn(C3CCN(c4cccc(C(F)(F)F)c4)C3=O)nc21 (stereo not shown) [Compound 10],"Plant response rating, Rice",rice (Oryza saliva) [1]; [20],60
same,Rice plant response rating,"rice (Oryza saliva) [1]; Flooded Paddy, Rate 250 g/ha",10
same,"Plant response rating, Rice",rice (Oryza saliva) [1]; [22],0
same,"Plant response rating, Rice",rice (Oryza saliva) [1]; [23],0
same,"Plant response rating (scale 0 to 100), Rice",rice (Oryza saliva) [1]; [24],0
same,"Plant response rating, Ducksalad",[2]; [20],90
same,Ducksalad plant response rating,"[2]; Flooded Paddy, Rate 250 g/ha",90
same,"Plant response rating, Ducksalad",[2]; [22],0
same,"Plant response rating, Ducksalad",[2]; [23],20
same,"Plant response rating (scale 0 to 100), Ducksalad",[2]; [24],0
same,"Plant response rating, Barnyardgrass",[3]; [20],80
same,Barnyardgrass plant response rating,"[3]; Flooded Paddy, Rate 250 g/ha",40
same,"Plant response rating, Barnyardgrass",[3]; [22],0
same,"Plant response rating, Barnyardgrass",[3]; [23],0
same,"Plant response rating (scale 0 to 100), Barnyardgrass",[3]; [24],0
same,"Plant response rating, Rice",rice (Oryza saliva) [4],60
same,"Plant response rating, Flatsedge",[5],100
same,"Plant response rating, Ducksalad",[6],100
same,"Plant response rating, Barnyardgrass",[7],100
O=C1C(n2cc(Cl)c(C3CC3)n2)CCN1c1cccc(C(F)(F)F)c1 (stereo not shown) [Compound 12],"Plant response rating, Rice",rice (Oryza saliva) [4],0
same,"Plant response rating, Flatsedge",[5],30
same,"Plant response rating, Ducksalad",[6],0
same,"Plant response rating, Barnyardgrass",[7],0
CCC(C)c1nn(C2CCN(c3cccc(C(F)(F)F)c3)C2=O)cc1Cl (stereo not shown) [Compound 13],"Plant response rating, Rice",rice (Oryza saliva) [4],0
same,"Plant response rating, Flatsedge",[5],0
same,"Plant response rating, Ducksalad",[6],0
same,"Plant response rating, Barnyardgrass",[7],0
CC(C)(C)c1nn(C2CCN(c3cccc(C(F)(F)F)c3)C2=O)cc1Cl (stereo not shown) [Compound 14],"Plant response rating, Rice",rice (Oryza saliva) [4],0
same,"Plant response rating, Flatsedge",[5],0
same,"Plant response rating, Ducksalad",[6],0
same,"Plant response rating, Barnyardgrass",[7],0
O=C1C(n2cccn2)CCN1c1cccc(C(F)(F)F)c1 (stereo not shown) [Compound 15],"Plant response rating, Rice",rice (Oryza saliva) [4],0
same,"Plant response rating, Flatsedge",[5],0
same,"Plant response rating, Ducksalad",[6],0
same,"Plant response rating, Barnyardgrass",[7],0
Cc1ccn(C2CCN(c3cccc(C(F)(F)F)c3)C2=O)n1 (stereo not shown) [Compound 16],"Plant response rating, Rice",rice (Oryza saliva) [4],0
same,"Plant response rating, Flatsedge",[5],0
same,"Plant response rating, Ducksalad",[6],0
same,"Plant response rating, Barnyardgrass",[7],0
CC(C)(C)c1ccn(C2CCN(c3cccc(Br)c3)C2=O)n1 (stereo not shown) [Compound 33],"Plant response rating, Rice",rice (Oryza saliva) [4],0
same,"Plant response rating, Flatsedge",[5],0
same,"Plant response rating, Ducksalad",[6],0
same,"Plant response rating, Barnyardgrass",[7],0
Cc1ccc(N2CCC(n3ccc(C(C)(C)C)n3)C2=O)cc1OCCCl (stereo not shown) [Compound 109],"Plant response rating, Sunflower",Sunflower; Rate 31 g/ha,40
same,"Plant response rating, Sunflower",Sunflower; Rate 62 g/ha,70
same,Rice plant response rating,"rice (Oryza saliva) [1]; Flooded Paddy, Rate 250 g/ha",0
same,Rice plant response rating,"rice (Oryza saliva) [1]; Flooded Paddy, Rate 500 g/ha",20
same,"Plant response rating, Rice",rice (Oryza saliva) [1]; [22],0
same,"Plant response rating, Rice",rice (Oryza saliva) [1]; [23],0
same,Ducksalad plant response rating,"[2]; Flooded Paddy, Rate 250 g/ha",70
same,Ducksalad plant response rating,"[2]; Flooded Paddy, Rate 500 g/ha",90
same,"Plant response rating, Ducksalad",[2]; [22],0
same,"Plant response rating, Ducksalad",[2]; [23],0
same,Barnyardgrass plant response rating,"[3]; Flooded Paddy, Rate 250 g/ha",70
same,Barnyardgrass plant response rating,"[3]; Flooded Paddy, Rate 500 g/ha",90
same,"Plant response rating, Barnyardgrass",[3]; [22],0
same,"Plant response rating, Barnyardgrass",[3]; [23],0
same,"Plant response rating, Crabgrass","[8]; Rate 31 g/ha, scale 0 to 100",0
same,"Plant response rating, Crabgrass","[8]; Rate 62 g/ha, scale 0 to 100",0
same,"Plant response rating, Crabgrass",[8]; [25],0
same,"Plant response rating, Soybean","soybean (Glycine max); Rate 31 g/ha, scale 0 to 100",60
same,"Plant response rating, Soybean","soybean (Glycine max); Rate 62 g/ha, scale 0 to 100",70
same,"Plant response rating, Soybean",soybean (Glycine max); [25],70
same,"Plant response rating, Morningglory",[9]; Rate 31 g/ha,60
same,"Plant response rating, Morningglory",[9]; Rate 62 g/ha,100
same,"Plant response rating, Velvetleaf",[10]; Rate 31 g/ha,20
same,"Plant response rating, Velvetleaf",[10]; Rate 62 g/ha,40
same,"Plant response rating, Velvetleaf",[10],70
same,"Plant response rating, Lambsquarters","[11]; Rate 31 g/ha, scale 0 to 100",70
same,"Plant response rating, Lambsquarters","[11]; Rate 62 g/ha, scale 0 to 100",70
same,"Plant response rating, Lambsquarters",[11]; [25],100
same,"Plant response rating, Johnsongrass","[12]; Rate 31 g/ha, scale 0 to 100",0
same,"Plant response rating, Johnsongrass","[12]; Rate 62 g/ha, scale 0 to 100",0
same,"Plant response rating, Johnsongrass",[12]; [25],0
same,"Plant response rating, Johnsongrass","[12]; rate not given, scale 0 to 100",0
same,"Plant response rating, Cocklebur",[13]; Rate 31 g/ha,0
same,"Plant response rating, Cocklebur",[13]; Rate 62 g/ha,40
same,"Plant response rating, Goosegrass","[14]; Rate 31 g/ha, scale 0 to 100",0
same,"Plant response rating, Goosegrass","[14]; Rate 62 g/ha, scale 0 to 100",0
same,"Plant response rating, Goosegrass",[14]; [25],10
same,"Plant response rating, Kochia","kochia (Kochia scoparia); Rate 31 g/ha, scale 0 to 100",80
same,"Plant response rating, Kochia","kochia (Kochia scoparia); Rate 62 g/ha, scale 0 to 100",80
same,"Plant response rating, Kochia",kochia (Kochia scoparia); [25],90
same,"Plant response rating, Ragweed, Common",[15]; Rate 31 g/ha,0
same,"Plant response rating, Ragweed, Common",[15]; Rate 62 g/ha,0
same,"Plant response rating, Foxtail, Giant","[16]; Rate 31 g/ha, scale 0 to 100",0
same,"Plant response rating, Foxtail, Giant","[16]; Rate 62 g/ha, scale 0 to 100",0
same,"Plant response rating, Foxtail, Giant",[16]; [25],0
same,"Plant response rating, Nutsedge","[17]; Rate 31 g/ha, scale 0 to 100",0
same,"Plant response rating, Nutsedge","[17]; Rate 62 g/ha, scale 0 to 100",0
same,"Plant response rating, Nutsedge",[17]; [25],0
same,"Plant response rating, Corn",corn (Zea mays); Rate 31 g/ha,0
same,"Plant response rating, Corn",corn (Zea mays); Rate 62 g/ha,0
same,"Plant response rating, Corn",corn (Zea mays),40
same,"Plant response rating, Bermudagrass","[18]; Rate 31 g/ha, scale 0 to 100",0
same,"Plant response rating, Bermudagrass","[18]; Rate 62 g/ha, scale 0 to 100",0
same,"Plant response rating, Bermudagrass","[18]; Rate 125 g/ha, scale 0 to 100, 0 no effect, 100 complete control",10
same,"Plant response rating, Bermudagrass",[18]; [25],20
same,"Plant response rating, Pigweed","[19]; Rate 31 g/ha, scale 0 to 100",70
same,"Plant response rating, Pigweed","[19]; Rate 62 g/ha, scale 0 to 100",70
same,"Plant response rating, Pigweed",[19]; [25],70
CC(C)(C)c1ccn(C2OCN(c3cccc(C(F)(F)F)c3)C2=O)n1 (stereo not shown) [compound 9],"Plant response rating, Rice",rice (Oryza saliva) [4],100
same,"Plant response rating, Flatsedge",[5],100
same,"Plant response rating, Ducksalad",[6],100
same,"Plant response rating, Barnyardgrass",[7],100
